The values below come from US8889840B2, “Vascular leakage inhibitor” (Industry-Academic Cooperation Foundation, Yonsei University, priority 2009, dated 2014).

“Also recorded” adds a separate entry of the source.

Experiment [1] has as its system human umbilical vein endothelial cells (HUVECs). Put plainly: Serum depletion-induced apoptosis of HUVECs, MTT assay and cell morphology. The note with it: serum-free medium, 5 or 10 μg/mL, 24 and 48 hours. The format is cell-based. As to the method: FIGS. 1a-1b and FIGS. 2a-2d show the result of screening Rk1 analogs that protect human umbilical vein endothelial cells (HUVECs) from serum depletion-induced apoptosis. HUVECs (3×10^5 cells/well) were seeded on a 24-well plate in M199 medium containing 20% fetal bovine serum. The next day, the cells were transferred to a medium containing 5 μg/mL (FIG. 1a) or 10 μg/mL (FIG. 1b) of the synthesized compound. Cell viability was determined by MIT assay 24 hours and 48 hours later. FIGS. 2a-2d show the result of observing cell morphologies. […]
Based on the previous researches performed by the inventors, the synthesized derivatives of Rk1 having steroid backbone and having the ability of inhibiting apoptosis of vascular endothelial cells and inhibiting permeability were screened. First, the ability of inhibiting apoptosis of vascular endothelial cells was measured. […] The next day, the cells were transferred to serum-free 11199 medium containing 5 μg/mL (FIG. 1a) or 10 μg/mL (FIG. 1b) of the compound synthesized in Synthesis Example 1-4, Cell viability was determined by MTT assay (Mosmann T, Journal of ImmunalogiCal Methods 65(1-2): 55-63 (1983); Cory A H, et al., Cancer Communications 3(7): 207-12 (1991)) 24 hours and 48 hours later.
In general terms: Tetrazolium assays rely on reduction of a dye to a coloured formazan, in cell work by metabolically active cells.

A further experiment concerns HUVECs. Put plainly: VEGF-induced actin stress fibers in HUVECs, rhodamine phalloidin staining. The format is cell-based, human. The note with it: 10 μg/mL pretreatment 1 hour, 20 ng/mL VEGF. As to the method:
Confluent HUVECs were pretreated with the compounds (10 μg/mL) for 60 minutes before treating with 20 ng/mL VEGF (1 hr). The cells were then stained with rhodamine phalloidin.
It is known that the change in the actin structure of the cytoskeleton is closely related with the permeability of vascular endothelial cells. Increased permeability of vascular endothelial cells leads to increased formation of actin stress fibers and decrease of cortical actin ring structures. Based on this, the ability of inhibiting vascular endothelial permeability of the synthesized Rk1 derivatives was screened. Confluent HUVECs were pretreated with the synthesized compounds (10 μg/mL) for 1 hour before treating with 20 ng/mL VEGF (Upstate Biotechnology). Subsequently, the cells were fixed with 4% paraformaldehyde for 20 minutes at room temperature and washed 3 times with PBS (pH 7.4). Then, the cells were permeabilized with 0.1% Triton X-100/PBS and reacted with 0.1 mg/mL rhodamine phalloidin (Molecular Probes) for 1 hour. Then, the cells were observed under a fluorescence microscope (Olympus).

The next experiment has as its system HRECs. Put plainly: Stability of tight junctions (TJs) at cell-cell contacts in VEGF-treated HRECs, anti-occludin immunostaining. The format is cell-based, human. The note with it: 10 μg/mL 1 hour, then 20 ng/mL VEGF 1 hour. As to the method: In FIG. 8a, confluent HRECs were pretreated with Sac0601 (panel A in FIG. 8a) or Sac0504 (panel B in FIG. 8a) for 60 minutes before treating with 20 ng/ml. VEGF (1 hr). The cells were then stained with occludin antibody.
Confluent HRECs were treated with 10 μg/mL Sac0601 (FIG. 8a, panel A) or Sac0504 (FIG. 8a, panel B) for 1 hour and then with 20 ng/mL. VEGF for 1 hour. Subsequently, the cells were fixed at room temperature for 20 minutes with 4% paraformaldehyde and permeabilized with 0:1% Triton X-100/PBS. Then, the cells were incubated in PBS blocking solution containing 5% normal goat serum and 0.05% Tween-20. The cells were then reacted with anti-occludin antibody (Zymed Laboratories Inc.). The result was visualized with fluorescein-conjugated anti-mouse antibody (Vector Lab.). Also, western blotting was conducted for the cell lysate. The cell lysate was fractionated with SDS-PAGE and then transferred to polyvinyl difluoride membrane. The blocked membrane was reacted with anti-occludin antibody (Zymed Laboratories Inc.) and the immune response band was visualized with the chemiluminescence reagent obtained from Amersham Biosciences, Inc.

In experiment [2] the test system is diabetic mouse (DM) model. Put plainly: Retinal vascular permeability in diabetic mouse (DM) model, FITC-dextran. To be noted: streptozotocin diabetic mouse, 10 μg into the vitreous body, 24 hours. The format is in vivo, C57/BL6 mouse. As to the method:
10 μg of Sac0601 or 10 μg of Sac0504 was injected into the vitreous body of one eye of a diabetic mouse. 24 hours after the injection, 100 μL of FITC-dextran (30 mg/mL in filtered […]) was injected into the left ventricle. Then, the retina was observed under an optical microscope (FIG. 11a) and the fluorescence intensity was quantified (FIG. 11b).
For in vivo analysis of the effect of the synthesized Rk1 derivatives on increased vascular permeability in diabetic retinopathy, a diabetic mouse (DM) model was made by injecting streptozotocin to C57/BL6 mouse. Sac 0601 or Sac 0504 (10 μg) was injected into the vitreous body of the mouse. 24 hours later, 40-kDa FITC-dextran (30 mg/mL in PBS, Sigma) was injected into the left ventricle. After waiting for about 2 minutes for circulation of the tracer, the eyes were taken out and fixed immediately in 4% PFA. Then, the retina was taken out and observed under an optical microscope.

As to `CC(=O)OCC1OC(OC2CCC3(C)C(=CCC4C3CCC3(C)C(C(C)CCCC(C)C)CCC43)C2)C=CC1OC(C)=O` (stereo not drawn) [Sac0601], the “ability of inhibiting apoptosis (cell viability by MTT assay)” value in experiment [1] is recorded as “comparable to that of Rk1”. Besides, in the experiment on HUVECs, the “cortical actin ring structure” value is given as “increased the cortical actin ring structure” and the “formation of actin stress fibers induced by VEGF” value was “inhibited the formation of actin stress fibers induced by VEGF”. Moreover, in the experiment with HRECs, the “redistribution of TJs into the cytoplasm or destabilizing at the cell membrane induced by VEGF” value was “could be inhibited” and the “stability of TJs between cells” value is recorded as “more effective in enhancing the stability of TJs than Sac0504”. Further, the “retinal vascular permeability induced in the DM” value in experiment [2] is on record as “completely inhibits; also recorded: very effectively”.

As to `CC(C)CCC[C@@H](C)[C@H]1CC[C@H]2[C@@H]3CC=C4C[C@@H](OC5CCCCO5)CC[C@]4(C)[C@H]3CC[C@]12C` (stereo partly drawn) [Sac0504], the “ability of inhibiting apoptosis (cell viability by MTT assay)” value in experiment [1] is given as “comparable to that of Rk1”. In the experiment on HUVECs, the “cortical actin ring structure” value is given as “increased the cortical actin ring structure” and the “formation of actin stress fibers induced by VEGF” value is given as “inhibited the formation of actin stress fibers induced by VEGF”. In addition, in the experiment on HRECs, the “redistribution of TJs into the cytoplasm or destabilizing at the cell membrane induced by VEGF” value is “could be inhibited” and the “stability of TJs between cells” value is listed as “enhanced”. Also, in experiment [2], the “retinal vascular permeability induced in the DM” value is listed as “partially inhibits; also recorded: only limitedly”.
